Test results published in publication PMC9774946, “Trans-(±)-Kusunokinin Binding to AKR1B1 Inhibits Oxidative Stress and Proteins Involved in Migration in Aggressive Breast Cancer” (Antioxidants, 2022).

Key:
[1] = molecular target: T1, AKR1B1 (aldose reductase) (Homo sapiens, UniProt P15121); test: aldose reductase inhibitor screening kit (NADPH consumption at […] nm); supported by CETSA in Hs578T and SKOV3 cells; assay type: biochemical
[2] = molecular target: T1, AKR1B1 (aldose reductase); test: aldose reductase inhibitor screening kit, NADPH consumption at […] nm; assay type: biochemical

SMILES: COc1ccc(C[C@H]2COC(=O)[C@@H]2Cc2ccc3c(c2)OCO3)cc1OC (racemic) [(±)KU, trans-(±)-kusunokinin]
- IC50 [1]: 9.72 ± 0.18 µM

SMILES: COc1ccc(C[C@H]2COC(=O)[C@@H]2Cc2ccc(O[C@@H]3O[C@H](CO)[C@@H](O)[C@H](O)[C@H]3O)c(OC)c2)cc1OC [(−)AR, trans-(−)-arctiin]
- IC50 [2]: 13.7 µM
